One experiment deals with T1, COX-2 (Homo sapiens, UniProt P35354).
T1 sequence (P35354 18-604): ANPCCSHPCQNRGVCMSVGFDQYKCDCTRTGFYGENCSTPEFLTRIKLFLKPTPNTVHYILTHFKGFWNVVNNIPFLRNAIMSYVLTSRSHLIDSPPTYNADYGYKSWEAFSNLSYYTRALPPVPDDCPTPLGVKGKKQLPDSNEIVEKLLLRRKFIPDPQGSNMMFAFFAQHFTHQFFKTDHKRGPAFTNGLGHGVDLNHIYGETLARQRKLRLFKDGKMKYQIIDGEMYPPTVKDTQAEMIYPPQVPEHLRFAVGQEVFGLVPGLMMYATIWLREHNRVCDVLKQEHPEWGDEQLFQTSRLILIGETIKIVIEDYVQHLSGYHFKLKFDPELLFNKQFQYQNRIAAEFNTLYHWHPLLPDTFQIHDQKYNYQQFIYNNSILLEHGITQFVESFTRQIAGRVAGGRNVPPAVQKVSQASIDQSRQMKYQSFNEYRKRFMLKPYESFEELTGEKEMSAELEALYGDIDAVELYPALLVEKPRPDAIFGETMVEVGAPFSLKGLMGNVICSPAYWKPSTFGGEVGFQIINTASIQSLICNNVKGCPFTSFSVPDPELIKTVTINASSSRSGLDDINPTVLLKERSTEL
The experiment can be described thus: COX-2 assay. The format is biochemical. The note with it: FIG. 2; compared to control diclofenac and dimethyl sulfoxide blank. The protocol:
(§1) The fractions isolated may be tested for activity against COX-2 or TNF-α using assays as would be known to those having skill in the art. Representative examples of such assays that could be used include a COX-2 inhibitory fluorometric assay or a TNF-α inhibitory fluorometric assay, each of which are commercially available from numerous suppliers.
(§2) The crude sample provided was dissolved in Ethyl acetate and dried down on Silica gel in a 1:3 ratio. Medium pressure chromatography was performed using a Teledyne-Isco combi-flash Torrent system. A 750 gram silica column was used with a Hexanes to Ethyl acetate gradient, which gave 11 fractions. Fraction A was then subjected to high pressure liquid chromatography on a preparative Silica NP column (250×20 mm), with a gradient between Hexanes to 20% ethyl acetate, which gave 4 fractions. The active fraction was further purified, with a gradient of Hexanes to 100% ethyl acetate on a preparative Silica NP column (250×20 mm), which gave 23 fractions. Fraction 17 was subjected to two rounds of NP hplc using an analytical Silica column (250×10 mm), which gave the final pure compound. An LC-20AD Shimadzu system and an SPD-20A UV detector was used for the hplc separations. All steps were guided using bioassay data from the COX-2 and TNF-α assays. […]

Another experiment concerns TNF-α. The experiment in a line: tumor necrosis factor alpha (TNF-α) assay. Format: cell-based. The note with it: FIG. 1; y-axis TNF-α in picograms per milliliter, lower values mean lower inflammation in the cell. The protocol: as §1, §2

Regarding `C[C@@]12CCC[C@@H]3c4ccccc4[C@@H](C[C@@H]31)OC2=O` [compound of formula (I)], at COX-2, the “inhibitory activity on COX-2 (level of prostaglandins in the sample)” value was “limited to no inhibitory activity”. Further, in the experiment with TNF-α, the “inhibitory activity of TNF-α (levels of TNF-α)” value is “inhibitory activity”.

For the origin of these results see US11759448B2, “Methods for the treatment of inflammation” (University of South Florida, priority 2020, dated 2023).
